Results as given in PubChem BioAssay AID2060903 (Molecular Pharmacology Branch, DTP, NCI, 2025).
pIC50: −log10 of the molar value.

Test system: 377384-186-R-J1-PDC complex spheroid viability
Test: Anticancer human tumor 377384-186-R-J1-PDC patient-derived pancreatic carcinoma cell line growth inhibition [RAS]
Details: for pIC50: curve of first compound; for viability, T/C: stronger effect = lower value
In short: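 Tumour cells grown as complex spheroids with HUVEC endothelial cells and mesenchymal stem cells, treated with RAS pathway inhibitor combinations. Each agent spans half-log steps from near clinical Cmax, or 10 microM where Cmax is unknown.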

[1] = second compound 0.00316 µM, first compound 0.00316 µM
[2] = second compound 0.00316 µM, first compound 0.01 µM
[3] = second compound 0.00316 µM, first compound 0.0316 µM
[4] = second compound 0.00316 µM, first compound 0.1 µM
[5] = second compound 0.00316 µM, first compound 0.316 µM
[6] = second compound 0.00316 µM, first compound 1 µM
[7] = second compound 0.01 µM, first compound 0.00316 µM
[8] = second compound 0.01 µM, first compound 0.01 µM
[9] = second compound 0.01 µM, first compound 0.0316 µM
[10] = second compound 0.01 µM, first compound 0.1 µM
[11] = second compound 0.01 µM, first compound 0.316 µM
[12] = second compound 0.01 µM, first compound 1 µM
[13] = second compound 0.0316 µM, first compound 0.00316 µM
[14] = second compound 0.0316 µM, first compound 0.01 µM
[15] = second compound 0.0316 µM, first compound 0.0316 µM
[16] = second compound 0.0316 µM, first compound 0.1 µM
[17] = second compound 0.0316 µM, first compound 0.316 µM
[18] = second compound 0.0316 µM, first compound 1 µM
[19] = second compound 0.1 µM, first compound 0.00316 µM
[20] = second compound 0.1 µM, first compound 0.01 µM
[21] = second compound 0.1 µM, first compound 0.0316 µM
[22] = second compound 0.1 µM, first compound 0.1 µM
[23] = second compound 0.1 µM, first compound 0.316 µM
[24] = second compound 0.1 µM, first compound 1 µM
[25] = second compound 0.316 µM, first compound 0.00316 µM
[26] = second compound 0.316 µM, first compound 0.01 µM
[27] = second compound 0.316 µM, first compound 0.0316 µM
[28] = second compound 0.316 µM, first compound 0.1 µM
[29] = second compound 0.316 µM, first compound 0.316 µM
[30] = second compound 0.316 µM, first compound 1 µM
[31] = second compound 1 µM, first compound 0.00316 µM
[32] = second compound 1 µM, first compound 0.01 µM
[33] = second compound 1 µM, first compound 0.0316 µM
[34] = second compound 1 µM, first compound 0.1 µM
[35] = second compound 1 µM, first compound 0.316 µM
[36] = second compound 1 µM, first compound 1 µM
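Also: spheroids exposed to compounds for seven days before readout.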

## CC1(C)CCC(Nc2ncc(C(F)(F)F)c(-c3c[nH]c4c(P(C)(C)=O)c(C#N)ccc34)n2)CN1 (stereo not drawn) + C#Cc1c(F)ccc2cc(O)cc(-c3ncc4c(N5CC6CCC(C5)N6)nc(OCC56CCCN5CC(F)C6)nc4c3F)c12
Second compound 0.0316 µM
  pIC50: > 9.02
Second compound 0.1 µM
  pIC50: > 9.02
Second compound 0.316 µM
  pIC50: > 9.02
Second compound 1 µM
  pIC50: > 9.02
Second compound 3.16 µM
  pIC50: > 9.02
Second compound 10 µM
  pIC50: > 9.02
Second compound 0.0316 µM, first compound 0.000949 µM
  viability, T/C: 22.5%
Second compound 0.0316 µM, first compound 0.003 µM
  viability, T/C: 20.6%
Second compound 0.0316 µM, first compound 0.00949 µM
  viability, T/C: 14.8%
Second compound 0.0316 µM, first compound 0.03 µM
  viability, T/C: 14.3%
Second compound 0.0316 µM, first compound 0.0949 µM
  viability, T/C: 11.5%
Second compound 0.0316 µM, first compound 0.3 µM
  viability, T/C: 10.4%
Second compound 0.1 µM, first compound 0.000949 µM
  viability, T/C: 12.3%
Second compound 0.1 µM, first compound 0.003 µM
  viability, T/C: 8.6%
Second compound 0.1 µM, first compound 0.00949 µM
  viability, T/C: 7.96%
Second compound 0.1 µM, first compound 0.03 µM
  viability, T/C: 7.41%
Second compound 0.1 µM, first compound 0.0949 µM
  viability, T/C: 7.16%
Second compound 0.1 µM, first compound 0.3 µM
  viability, T/C: 6.43%
Second compound 0.316 µM, first compound 0.000949 µM
  viability, T/C: 4.28%
Second compound 0.316 µM, first compound 0.003 µM
  viability, T/C: 5.25%
Second compound 0.316 µM, first compound 0.00949 µM
  viability, T/C: 2.68%
Second compound 0.316 µM, first compound 0.03 µM
  viability, T/C: 4.16%
Second compound 0.316 µM, first compound 0.0949 µM
  viability, T/C: 3.74%
Second compound 0.316 µM, first compound 0.3 µM
  viability, T/C: 2.89%
Second compound 1 µM, first compound 0.000949 µM
  viability, T/C: 4.34%
Second compound 1 µM, first compound 0.003 µM
  viability, T/C: 2.56%
Second compound 1 µM, first compound 0.00949 µM
  viability, T/C: 2.74%
Second compound 1 µM, first compound 0.03 µM
  viability, T/C: 3.25%
Second compound 1 µM, first compound 0.0949 µM
  viability, T/C: 2.68%
Second compound 1 µM, first compound 0.3 µM
  viability, T/C: 2.91%
Second compound 3.16 µM, first compound 0.000949 µM
  viability, T/C: 2.73%
Second compound 3.16 µM, first compound 0.003 µM
  viability, T/C: 2.34%
Second compound 3.16 µM, first compound 0.00949 µM
  viability, T/C: 1.84%
Second compound 3.16 µM, first compound 0.03 µM
  viability, T/C: 2.23%
Second compound 3.16 µM, first compound 0.0949 µM
  viability, T/C: 2.14%
Second compound 3.16 µM, first compound 0.3 µM
  viability, T/C: 2.47%
Second compound 10 µM, first compound 0.000949 µM
  viability, T/C: 1.18%
Second compound 10 µM, first compound 0.003 µM
  viability, T/C: 1.24%
Second compound 10 µM, first compound 0.00949 µM
  viability, T/C: 1.33%
Second compound 10 µM, first compound 0.03 µM
  viability, T/C: 1.3%
Second compound 10 µM, first compound 0.0949 µM
  viability, T/C: 0.94%
Second compound 10 µM, first compound 0.3 µM
  viability, T/C: 0.79%

## C=CC(=O)Nc1cc(Nc2nccc(-c3cn(C)c4ccccc34)n2)c(OC)cc1N(C)CCN(C)C + C=CC(=O)N1CCN(c2nc(OCC3CCCN3C)nc3c(F)c(-c4nc(N)cc(C)c4C(F)(F)F)c(Cl)cc23)C(C)C1
Second compound 0.00316 µM
  pIC50: 6.18
Second compound 0.01 µM
  pIC50: 6.22
Second compound 0.0316 µM
  pIC50: 6.07
Second compound 0.1 µM
  pIC50: 6.09
Second compound 0.316 µM
  pIC50: 6.04
Second compound 1 µM
  pIC50: 6.10
[1]
  viability, T/C: 99.4%
[2]
  viability, T/C: 90.1%
[3]
  viability, T/C: 98.1%
[4]
  viability, T/C: 81.3%
[5]
  viability, T/C: 61%
[6]
  viability, T/C: 43.9%
[7]
  viability, T/C: 87.6%
[8]
  viability, T/C: 86.8%
[9]
  viability, T/C: 87.8%
[10]
  viability, T/C: 81.2%
[11]
  viability, T/C: 59.9%
[12]
  viability, T/C: 42.2%
[13]
  viability, T/C: 96.7%
[14]
  viability, T/C: 81.5%
[15]
  viability, T/C: 90.7%
[16]
  viability, T/C: 79.1%
[17]
  viability, T/C: 64.6%
[18]
  viability, T/C: 47.5%
[19]
  viability, T/C: 96.4%
[20]
  viability, T/C: 88.8%
[21]
  viability, T/C: 102%
[22]
  viability, T/C: 77.3%
[23]
  viability, T/C: 70%
[24]
  viability, T/C: 46%
[25]
  viability, T/C: 92.1%
[26]
  viability, T/C: 98.3%
[27]
  viability, T/C: 83.8%
[28]
  viability, T/C: 77.9%
[29]
  viability, T/C: 64.8%
[30]
  viability, T/C: 48.4%
[31]
  viability, T/C: 93.2%
[32]
  viability, T/C: 84.1%
[33]
  viability, T/C: 85.2%
[34]
  viability, T/C: 83.9%
[35]
  viability, T/C: 65.6%
[36]
  viability, T/C: 46.2%

## CC(Nc1ccc2c(c1)OCCn1cc(N3C(=O)OCC3C(F)F)nc1-2)C(N)=O (stereo not drawn) + C=CC(=O)N1CCN(c2nc(OCC3CCCN3C)nc3c(F)c(-c4nc(N)cc(C)c4C(F)(F)F)c(Cl)cc23)C(C)C1
Second compound 0.00316 µM
  pIC50: 6.13
Second compound 0.01 µM
  pIC50: 6.24
Second compound 0.0316 µM
  pIC50: 6.35
Second compound 0.1 µM
  pIC50: 6.11
Second compound 0.316 µM
  pIC50: 6.59
Second compound 1 µM
  pIC50: 6.19
[3]
  viability, T/C: 73.4%
[4]
  viability, T/C: 72.2%
[5]
  viability, T/C: 52.8%
[6]
  viability, T/C: 48.1%
Second compound 0.00316 µM, first compound 3.16 µM
  viability, T/C: 38.4%
Second compound 0.00316 µM, first compound 10 µM
  viability, T/C: 28.4%
[9]
  viability, T/C: 76.8%
[10]
  viability, T/C: 63.5%
[11]
  viability, T/C: 54.8%
[12]
  viability, T/C: 46.6%
Second compound 0.01 µM, first compound 3.16 µM
  viability, T/C: 37.9%
Second compound 0.01 µM, first compound 10 µM
  viability, T/C: 32.8%
[15]
  viability, T/C: 86.2%
[16]
  viability, T/C: 68.2%
[17]
  viability, T/C: 55.7%
[18]
  viability, T/C: 40.3%
Second compound 0.0316 µM, first compound 3.16 µM
  viability, T/C: 34.2%
Second compound 0.0316 µM, first compound 10 µM
  viability, T/C: 32.1%
[21]
  viability, T/C: 78.9%
[22]
  viability, T/C: 73.3%
[23]
  viability, T/C: 60.5%
[24]
  viability, T/C: 45%
Second compound 0.1 µM, first compound 3.16 µM
  viability, T/C: 40.1%
Second compound 0.1 µM, first compound 10 µM
  viability, T/C: 30.6%
[27]
  viability, T/C: 89.7%
[28]
  viability, T/C: 63%
[29]
  viability, T/C: 43.2%
[30]
  viability, T/C: 44.8%
Second compound 0.316 µM, first compound 3.16 µM
  viability, T/C: 33.5%
Second compound 0.316 µM, first compound 10 µM
  viability, T/C: 32%
[33]
  viability, T/C: 79.2%
[34]
  viability, T/C: 68.2%
[35]
  viability, T/C: 53.5%
[36]
  viability, T/C: 48.4%
Second compound 1 µM, first compound 3.16 µM
  viability, T/C: 38%
Second compound 1 µM, first compound 10 µM
  viability, T/C: 32.2%

## O=C(c1ccc(F)c(F)c1Nc1ccc(I)cc1F)N1CC(O)([C@@H]2CCCCN2)C1 + C=CC(=O)N1CCN(c2nc(OCC3CCCN3C)nc3c(F)c(-c4nc(N)cc(C)c4C(F)(F)F)c(Cl)cc23)C(C)C1
Second compound 0.00316 µM
  pIC50: 7.37
Second compound 0.01 µM
  pIC50: 7.48
Second compound 0.0316 µM
  pIC50: 7.44
Second compound 0.1 µM
  pIC50: 7.43
Second compound 0.316 µM
  pIC50: 7.39
Second compound 1 µM
  pIC50: 7.35
[1]
  viability, T/C: 81.3%
[2]
  viability, T/C: 79.2%
[3]
  viability, T/C: 58.5%
[4]
  viability, T/C: 23.8%
[5]
  viability, T/C: 3.06%
[6]
  viability, T/C: 0.45%
[7]
  viability, T/C: 94.9%
[8]
  viability, T/C: 77.9%
[9]
  viability, T/C: 51.3%
[10]
  viability, T/C: 23.6%
[11]
  viability, T/C: 2.14%
[12]
  viability, T/C: 0.43%
[13]
  viability, T/C: 93.3%
[14]
  viability, T/C: 73.3%
[15]
  viability, T/C: 58.9%
[16]
  viability, T/C: 20%
[17]
  viability, T/C: 2.38%
[18]
  viability, T/C: 0.3%
[19]
  viability, T/C: 94.6%
[20]
  viability, T/C: 68.5%
[21]
  viability, T/C: 62.3%
[22]
  viability, T/C: 20.7%
[23]
  viability, T/C: 2.8%
[24]
  viability, T/C: 0.78%
[25]
  viability, T/C: 77.7%
[26]
  viability, T/C: 74.7%
[27]
  viability, T/C: 57.5%
[28]
  viability, T/C: 22.5%
[29]
  viability, T/C: 2.78%
[30]
  viability, T/C: 0.48%
[31]
  viability, T/C: 88.8%
[32]
  viability, T/C: 80.8%
[33]
  viability, T/C: 62%
[34]
  viability, T/C: 24.5%
[35]
  viability, T/C: 2.77%
[36]
  viability, T/C: 0.56%
